≈ marks a conversion by molar mass, not a printed value. Where a SMILES comes first, the peptide text is derived from it. [ ]: non-standard residue; d: D form. Aib = CC(C)(N)C(=O)O

Consider three compounds from patent publication US20240279298A1 (BEIJING TUO JIE BIOPHARMACEUTICAL CO. LTD., priority 2021, published 2024).

The target of data set [1] is T1, human GIPR (Homo sapiens, UniProt P48546).
T1 construct: expressed in transfected cells
T1 sequence (P48546 22-466): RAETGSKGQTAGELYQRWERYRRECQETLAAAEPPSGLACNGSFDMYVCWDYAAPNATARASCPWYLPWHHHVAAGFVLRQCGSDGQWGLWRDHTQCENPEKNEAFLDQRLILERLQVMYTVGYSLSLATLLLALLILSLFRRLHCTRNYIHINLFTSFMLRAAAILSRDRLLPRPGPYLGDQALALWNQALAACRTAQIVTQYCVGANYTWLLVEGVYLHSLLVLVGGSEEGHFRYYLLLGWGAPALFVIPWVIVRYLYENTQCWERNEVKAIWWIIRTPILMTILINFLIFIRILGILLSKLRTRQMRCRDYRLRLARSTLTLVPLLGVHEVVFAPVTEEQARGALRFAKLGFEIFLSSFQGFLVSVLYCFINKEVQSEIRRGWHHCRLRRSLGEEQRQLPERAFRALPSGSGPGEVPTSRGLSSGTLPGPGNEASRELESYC
Kind of data set: Agonist activity assay for GIPR (cAMP HTRF). As to conditions: for EC50: CHO-K1/GIPR cell line, cAMP. Type of data set: cell-based. The protocol: (§1) The activation of GCGR by related compounds will stimulate the formation of cyclic adenosine monophosphate (cAMP) in cells. Thus, the receptor activity can be monitored by cAMP production in proper cells expressing the receptor.
(§2) Agonist activity assay for GCGR: Cryopreserved stable CHO-K1/GCGR/CRE-Luc cells were taken from a liquid nitrogen tank, thawed in a 37° C. water bath, resuspended in DMEM/F12 medium (Sigma Cat #D8437), centrifuged, and seeded into T75 culture flasks. The cells were passaged at least once for subsequent tests. Before testing, the cells were trypsinized, centrifuged, washed once, and resuspended in serum-free DMEM/F12 medium. The cell density was adjusted, and the cells were plated in a 96-well plate at a density of 2,500 cells/5 μL/well. A 1×buffer solution in Cisbio-cAMP-Gs Dynamic kit was prepared, and IBMX was added at a final concentration of 0.5 mM. 5 μL of polypeptide serially diluted by buffer was added into each well, and the plate was shaken gently for mixing and incubated for 30 minutes at 37° C. cAMP-d2 and Anti-cAMP-Eu^3+-Cryptate were 20-fold diluted with cAMP Lysis and detection buffer respectively and mixed well. 5 μL of diluted cAMP-d2 solution and 5 μL of diluted Anti-cAMP-Eu^3+-Cryptate solution were sequentially added into each well. The mixture was mixed well by moderate vibration, and incubated for 1 hour at room temperature away from light.
Agonist activity assay for GIPR: The method differed from the method described above for the agonist activity assay for GCGR in that a stable CHO-K1/GIPR cell line was used, and the cell density was 3,000 cells/5 μL/well.

The target of data set [2] is T2, human GLP-1R (Homo sapiens, UniProt P43220).
T2 construct: expressed in transfected cells
T2 sequence (P43220 24-463): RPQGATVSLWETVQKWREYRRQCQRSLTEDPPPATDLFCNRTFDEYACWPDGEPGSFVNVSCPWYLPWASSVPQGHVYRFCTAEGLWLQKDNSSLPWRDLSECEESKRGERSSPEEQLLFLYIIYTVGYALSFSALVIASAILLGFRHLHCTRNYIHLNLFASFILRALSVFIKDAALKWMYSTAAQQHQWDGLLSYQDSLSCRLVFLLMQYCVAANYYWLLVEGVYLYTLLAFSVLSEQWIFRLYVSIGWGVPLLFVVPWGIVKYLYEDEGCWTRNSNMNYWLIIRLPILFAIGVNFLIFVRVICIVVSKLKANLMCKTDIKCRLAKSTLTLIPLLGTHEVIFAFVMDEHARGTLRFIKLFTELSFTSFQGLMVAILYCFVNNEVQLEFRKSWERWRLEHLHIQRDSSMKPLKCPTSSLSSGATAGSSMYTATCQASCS
Kind of data set: Agonist activity assay for GLP-1R (cAMP HTRF). Type of data set: cell-based. The protocol:
as §1, §2
Agonist activity assay for GLP-1R: The method differed from the method described above for the agonist activity assay for GCGR in that a stable CHO-GLP-1R cell line was used.
(In general: TR-FRET usually uses a lanthanide donor and a delayed reading to cut background.)

Data set [3] in a line: Maximum solubility in phosphate buffer pH 7.4. In kind it is physicochemical. As to conditions: phosphate buffer pH 7.4, room temperature.
Data set [4] can be described thus: Chemical stability in phosphate buffer (UPLC purity). In kind it is physicochemical. Particulars: phosphate buffer pH 7.4, 1 mg/mL; for Purity Day 0: day 0 (normalization).
Experimental: The compound purity was calculated by the percentage area of the main peak in the chromatograms relative to the total area of all integrated peaks, normalized by the purity of the sample on day 0 for the purity.
Data set [5] addresses T3, human glucagon receptor (GCGR) (Homo sapiens, UniProt P47871).
T3 construct: expressed in transfected cells
Kind of data set: Agonist activity assay for GCGR (cAMP HTRF). In kind it is cell-based. As to conditions: normalized by the activity of the native glucagon. The protocol:
The activation of GCGR by related compounds will stimulate the formation of cyclic adenosine monophosphate (cAMP) in cells. Thus, the receptor activity can be monitored by cAMP production in proper cells expressing the receptor. […] The cells were passaged at least once for subsequent tests. Before testing, the cells were trypsinized, centrifuged, washed once, and resuspended in serum-free DMEM/F12 medium. The cell density was adjusted, and the cells were plated in a 96-well plate at a density of 2,500 cells/5 μL/well. […] The mixture was mixed well by moderate vibration, and incubated for 1 hour at room temperature away from light.

Data set [6] concerns the target human glucose-dependent insulinotropic polypeptide receptor (GIPR) (human) (UniProt P48546). Kind of data set: cell-based or functional assay.

T3 sequence (P47871 26-477): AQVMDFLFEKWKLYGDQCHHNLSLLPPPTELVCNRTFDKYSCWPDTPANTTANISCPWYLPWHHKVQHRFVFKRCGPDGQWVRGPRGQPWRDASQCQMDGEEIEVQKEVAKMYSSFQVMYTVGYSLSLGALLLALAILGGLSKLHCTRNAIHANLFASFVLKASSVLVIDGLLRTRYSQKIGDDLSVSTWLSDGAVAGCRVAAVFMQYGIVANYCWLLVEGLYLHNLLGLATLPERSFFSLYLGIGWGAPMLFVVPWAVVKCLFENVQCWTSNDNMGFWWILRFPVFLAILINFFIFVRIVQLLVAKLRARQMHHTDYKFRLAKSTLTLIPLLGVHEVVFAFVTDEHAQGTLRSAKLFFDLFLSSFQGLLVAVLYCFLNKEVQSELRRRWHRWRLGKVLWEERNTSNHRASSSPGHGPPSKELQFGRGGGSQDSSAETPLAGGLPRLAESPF

Turning to `CC(C)C[C@H](NC(=O)[C@H](Cc1c[nH]c2ccccc12)NC(=O)[C@H](CCC(N)=O)NC(=O)[C@@H](NC(=O)[C@H](Cc1ccccc1)NC(=O)[C@H](CCC(=O)O)NC(=O)[C@H](CCC(N)=O)NC(=O)[C@H](C)NC(=O)[C@H](CCCNC(=N)N)NC(=O)C(C)(C)NC(=O)[C@@H](NC(=O)[C@H](CC(=O)O)NC(=O)[C@H](CC(C)C)NC(=O)[C@H](Cc1ccc(O)cc1)NC(=O)[C@H](CCCCN)NC(=O)[C@H](CO)NC(=O)[C@H](Cc1ccc(O)cc1)NC(=O)[C@H](CC(=O)O)NC(=O)[C@H](CO)NC(=O)[C@@H](NC(=O)[C@H](Cc1ccccc1)NC(=O)[C@@H](NC(=O)CNC(=O)[C@H](CCC(N)=O)NC(=O)[C@H](CO)NC(=O)[C@@H](N)Cc1c[nH]cn1)[C@@H](C)O)[C@@H](C)O)[C@@H](C)O)C(C)C)C(=O)N[C@@H](CCC(=O)O)C(=O)N[C@@H](CO)C(=O)N[C@H](C(=O)O)[C@@H](C)O` [Compound 39] (H-HSQGTFTSDYSKYLDT[Aib]RAQEFVQWLEST-OH), in data set [1], the EC50 (commonly the midpoint of the concentration-response curve) is more than 100 nM and the “GIPR % Activity relative to native GIP” value is given as less than 0.0700%. For the same compound, in data set [2], the “GLP-1R % Activity relative to native GLP-1” value is given as 0.212%. The solubility (usually how much of the substance goes into solution per volume) at 5 min in data set [3] is more than 4790 µg/mL. Moreover, in data set [4] (4° C.), the “Purity Day 7” value is given as 97.24%, the “Purity Day 14” value turned out to be 97.45%, the “Purity Day 21” value is listed as 95.71% and the “Purity Day 28” value is on record as 94.88%. Also, in data set [4] (25° C.), the “Purity Day 7” value is given as 94.64%, the “Purity Day 14” value worked out at 93.86%, the “Purity Day 21” value came out at 91.35% and the “Purity Day 28” value amounted to 91.85%. The “Purity Day 0” value in data set [4] is 100.00%. The Relative activity in data set [5] is 268%.

On to `CC(C)C[C@H](NC(=O)[C@H](Cc1c[nH]c2ccccc12)NC(=O)[C@H](CCC(N)=O)NC(=O)[C@@H](NC(=O)[C@H](Cc1ccccc1)NC(=O)[C@H](CCC(=O)O)NC(=O)[C@H](CCC(N)=O)NC(=O)[C@H](C)NC(=O)[C@H](CCCNC(=N)N)NC(=O)C(C)(C)NC(=O)[C@@H](NC(=O)[C@H](CC(=O)O)NC(=O)[C@H](CC(C)C)NC(=O)[C@H](Cc1ccc(O)cc1)NC(=O)[C@H](CCCCN)NC(=O)[C@H](CO)NC(=O)[C@H](Cc1ccc(O)cc1)NC(=O)[C@H](CC(=O)O)NC(=O)[C@H](CO)NC(=O)[C@@H](NC(=O)[C@H](Cc1ccccc1)NC(=O)[C@@H](NC(=O)CNC(=O)[C@H](CCC(N)=O)NC(=O)[C@H](CO)NC(=O)[C@@H](N)Cc1c[nH]cn1)[C@@H](C)O)[C@@H](C)O)C(C)C)C(C)C)C(=O)N[C@@H](CCC(=O)O)C(=O)N[C@@H](CO)C(=O)N[C@H](C(=O)O)[C@@H](C)O` [Compound 41] (H-HSQGTFTSDYSKYLDV[Aib]RAQEFVQWLEST-OH), for which, in data set [1], the EC50 is more than 100 nM and the “GIPR % Activity relative to native GIP” value is listed as less than 0.0700%. In addition, the “GLP-1R % Activity relative to native GLP-1” value in data set [2] worked out at 0.231%. In data set [3], this compound came in with a solubility at 5 min of 2560 µg/mL (≈ 751 µM). Also, in data set [4] (4° C.), the “Purity Day 7” value is on record as 98.77%, the “Purity Day 14” value is listed as 93.35%, the “Purity Day 21” value is recorded as 89.45% and the “Purity Day 28” value is on record as 89.12%. Besides, in data set [4] (25° C.), the “Purity Day 7” value is on record as 82.25%, the “Purity Day 14” value came out at 68.13%, the “Purity Day 21” value turned out to be 49.04% and the “Purity Day 28” value is recorded as 33.47%. Further, the “Purity Day 0” value in data set [4] was 100.00%. Moreover, the Relative activity in data set [5] is 333%.

In data set [6], “human GIP (1-42) (from UniProt P09681 52-93) (ligand)” displayed a GIPR % Activity relative to native GIP, cAMP HTRF of 100% and a GIPR EC50 (nM), cAMP HTRF in CHO-K1/GIPR cells of 0.0652 nM.
